The values that follow come from US10399987B2, “TGF beta receptor antagonists” (BRISTOL-MYERS SQUIBB COMPANY, priority 2015, dated 2019).

This experiment deals with HIS-TGFβR1 T204D (Homo sapiens (Human), UniProt P36897, T204D). Nature of the experiment: TGFβR1 HIS T204D HTRF assay (labeled small molecule probe, anti-HIS detection antibody). The note with it: 1 nM HIS-TGFβR1 T204D, probe at Kd, 1 hour at room temperature, eleven concentrations. The class given is binding. In general terms: Time-resolved FRET reads energy transfer from a long-lived donor to a nearby acceptor.
HIS-TGFβR1 T204D, sequence (P36897 34-503 T204D): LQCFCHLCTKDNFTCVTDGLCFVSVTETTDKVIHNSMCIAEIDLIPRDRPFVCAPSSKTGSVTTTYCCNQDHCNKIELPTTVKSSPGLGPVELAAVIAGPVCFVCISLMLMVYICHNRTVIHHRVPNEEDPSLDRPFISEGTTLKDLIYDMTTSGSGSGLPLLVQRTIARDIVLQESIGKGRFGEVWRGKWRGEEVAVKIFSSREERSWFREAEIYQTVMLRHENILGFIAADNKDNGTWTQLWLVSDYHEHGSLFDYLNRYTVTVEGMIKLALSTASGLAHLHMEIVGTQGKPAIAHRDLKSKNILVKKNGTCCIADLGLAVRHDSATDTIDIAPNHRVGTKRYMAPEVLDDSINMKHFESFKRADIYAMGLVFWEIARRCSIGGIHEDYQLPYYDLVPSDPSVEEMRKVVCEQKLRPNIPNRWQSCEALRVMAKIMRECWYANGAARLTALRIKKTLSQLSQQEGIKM
In general, IC50 refers to the concentration that gives 50% inhibition. The low end stands for greater potency in that assay, the high end for weaker potency in that assay. With `CN(c1ccncc1)c1nc(-c2cccc(C(F)(F)F)n2)nc2[nH]ccc12` [Example 38, N-methyl-N-{2-[6-(trifluoromethyl)pyridin-2-yl]-7H-pyrrolo[2,3-d]pyrimidin-4-yl}pyridin-4-amine], it took 0.59 nM to reach half-maximal inhibition (IC50).

On to `FC(F)(F)c1cccc(-c2nc(Nc3ccncc3C(F)(F)F)c3cc[nH]c3n2)n1` [Example 39, 3-(trifluoromethyl)-N-{2-[6-(trifluoromethyl)pyridin-2-yl]-7H-pyrrolo[2,3-d]pyrimidin-4-yl}pyridin-4-amine], for which 0.64 nM corresponded to half-maximal inhibition (IC50).

In turn, `FC(F)(F)c1cccc(-c2nc(Nc3ccncc3Cl)c3cc[nH]c3n2)n1` [Example 40, 3-chloro-N-{2-[6-(trifluoromethyl)pyridin-2-yl]-7H-pyrrolo[2,3-d]pyrimidin-4-yl}pyridin-4-amine] gave a half-inhibitory concentration (IC50) of 0.6 nM.

Regarding `O=C(Nc1cc(Nc2nc(-c3cccc(C(F)(F)F)n3)nc3[nH]ccc23)ccn1)C1CC1` [Example 41, N-[4-({2-[6-(trifluoromethyl)pyridin-2-yl]-7H-pyrrolo[2,3-d]pyrimidin-4-yl}amino)pyridin-2-yl]cyclopropanecarboxamide], the IC50 was determined as 0.87 nM.

Regarding `COc1cnccc1Nc1nc(-c2cccc(C(F)(F)F)n2)nc2[nH]ccc12` [Example 42, 3-methoxy-N-{2-[6-(trifluoromethyl)pyridin-2-yl]-7H-pyrrolo[2,3-d]pyrimidin-4-yl}pyridin-4-amine], half-maximal inhibition (IC50) required 1.7 nM.

Compound `CC(=O)Nc1cc(Nc2nc(-c3cccc(C(F)F)n3)nc3[nH]cc(CNCC(C)(C)O)c23)c(F)cn1` [Example 44, N-[4-({2-[6-(difluoromethyl)pyridin-2-yl]-5-{[(2-hydroxy-2-methylpropyl)amino]methyl}-7H-pyrrolo[2,3-d]pyrimidin-4-yl}amino)-5-fluoropyridin-2-yl]acetamide] came in with an IC50 of 2.6 nM.

`Cc1cnccc1Nc1nc(-c2ccc(F)c(C)n2)nc2[nH]ccc12` [Example 45, N-[2-(5-fluoro-6-methylpyridin-2-yl)-7H-pyrrolo[2,3-d]pyrimidin-4-yl]-3-methylpyridin-4-amine] gave an IC50 of 1 nM.

As to `COc1cnccc1Nc1nc(-c2ccc(F)c(C)n2)nc2[nH]ccc12` [Example 46, N-[2-(5-fluoro-6-methylpyridin-2-yl)-7H-pyrrolo[2,3-d]pyrimidin-4-yl]-3-methoxypyridin-4-amine], 0.79 nM corresponded to half-maximal inhibition (IC50).

`Cc1nc(-c2nc(Nc3ccnc(NC(=O)C4CC4)c3)c3cc[nH]c3n2)ccc1F` [Example 47, N-(4-{[2-(5-fluoro-6-methylpyridin-2-yl)-7H-pyrrolo[2,3-d]pyrimidin-4-yl]amino}pyridin-2-yl)cyclopropanecarboxamide] returned an IC50 of 1.4 nM.

`CN(c1ccncc1)c1nc(-c2cccc(NS(C)(=O)=O)n2)nc2[nH]ccc12` [Example 48, N-(6-{4-[methyl(pyridin-4-yl)amino]-7H-pyrrolo[2,3-d]pyrimidin-2-yl}pyridin-2-yl)methanesulfonamide] had an IC50 of 4.3 nM.

In the case of `CS(=O)(=O)Nc1cccc(-c2nc(Nc3ccncc3Cl)c3cc[nH]c3n2)n1` [Example 49, N-(6-{4-[(3-chloropyridin-4-yl)amino]-7H-pyrrolo[2,3-d]pyrimidin-2-yl}pyridin-2-yl)methanesulfonamide], the concentration for half-maximal inhibition (IC50) is 2.2 nM.
